Assays:
TC-PTP = TC-PTP (Homo sapiens (Human), UniProt P17706); assay: Enzyme Assay for TC-PTP; assay type: biochemical; details: inhibition of TC-PTP enzymatic activity
Method: 1) Enzyme Assay for TC-PTP
• Assay buffer: 50 mM Bis-Tris (pH=6.3) • 2 mM EDTA • 5 mM N,N′-dimethyl-N,N′-bis(mercaptoacetyl)hydrazine (DMH) • Substrate: 10 mM fluorescein diphosphate (FOP) store at −20° C. (also can use 10 mM DiFMUP) • Enzyme dilution buffer: 50 mM Bis-Tris (pH=6.3) • 2 mM EDTA • 5 mM DMH • 20% (v/v) glycerol • 0.01% Triton X-100
The assay was carried out at room temperature in 96 well plates. The reaction mixture in 170 μl contained 50 mM Bis-Tris (pH=6.3), 2 mM EDTA, 5 mM N,N′-dimethyl-N,N′bis(mercaptoacetyl)hydrazine (DMH) and 10 μM fluorescein diphosphare (FDP) or 6,8-difluoro-4-methylumbelliferyl phosphate (DiFMUP). 10 μl of 10 concentrations (serial dilution) of the test compound (inhibitor) dissolved in DMSO or DMSO alone for control was added to each well and the plate was mixed for 2 min. The reaction was initiated by adding 20 μl of diluted TC-PTP (50 nM for FDP, 0.5 nM for DiFMUP in 50 mM Bis/Tris (pH=6.3), 2 mM EDTA, 5 mM DMH, 20% glycerol and 0.01% Triton X-100. The phosphatase activity was followed by monitoring the appearance of the fluorescent product fluorescein monophosphate (FMP) or 6,8-difluoro-7-hydroxyl-4-coumarin (DiFMU) continuously for 15-30 min, using the Spectromax Gemini fluorescent plate reader ([…]) with excitation of 440 nm and emission at 530 nm (cutoff filter at 525 nm) for FDP and excitation at 360 nm and emission at 450 nm (cutoff filter at 435 nm) for DiFMUP. All the assays were done at least in duplicate. The initial rate of FMP or DiFMU formation is plotted against the concentration of inhibitor and the data was fitted to 4-parameter equation and the inflection point of the fit is the IC50.

monocyte-derived DCs = assay: Mouse Dendritic Cell Assay (IL-12 production); assay type: cell-based; details: for % increase in IL-12 production: 24 h IL-12 production following 6 days of DC incubation and maturation in the presence of 32 μM of test compound vs vehicle-treated cells; for potency in the IL-12 release assay (in words): IL-12 release assay shown in Example 12
Method: Mouse bone marrow cells were flushed from the femur and tibia into RPMI (supplemented with 10% FBS, gentamicin, HEPES, non-essential amino acids) using a syringe equipped with a 23 gauge needle. Clumps were dispersed by gently passing the cell suspension several times through the syringe. Any remaining clumps of cells and debris were removed by passing cell suspension through a 70 μM nylon strainer. The suspension was centrifuged (300×g for 10 mins), the supernatant was discarded and the cells were resuspended in 5 ml of red cell lysis buffer (SIGMA). The cells were counted and mouse monocytes cells (CD11b+) were isolated according to the instructions for positive selection of CD11 b cells (Stemcell technologies). The cells were then resuspended in RPMI media supplemented with 10% FBS, gentamicin, Hepes and non-essential aminoacids (aa) and treated with 40 ng/ml of recombinant mouse GM-CSF and IL-4 (Peprotech). Mouse monocytes were plated at 1×10^6 cells/mL. The cells were incubated for 6 days at 37° C., 5% CO2 in a humidified incubator in the presence of different concentrations of the compounds (0-32 μM). The media was changed every three days by removing half of the media from the plate and replenishing with the same volume of fresh media supplemented with cytokines and the test compounds at the same concentrations.
Immature monocyte-derived DCs may be incubated with a DC maturation cocktail containing the test compounds and incubated for an additional 24-72 hours. There are many DC maturation cocktails identified in the literature, with the “gold standard” consisting of 10 ng/ml TNF-α, 10 ng/ml IL-1β, 1000 units/ml IL-6 and 1 μg/mL PGE2. Alternatively, MPLA (10 μg/mL) and IFNγ (500 U/ml, Peprotech, for clinical research) has also been used. For the data shown in Example 12, the immature monocyte-derived DCs were cultured with LPS (1 μg/mL)) for 48 hours to induce maturation. Test compounds were included in the maturation cocktail at concentrations varying between 1 and 32 μM.
(§1) Characteristics of the mature DCs can be determined by a number of assays including flow cytometry analysis of the surface markers expressed on DCs, the cytokine production profile of activated DCs, antigen presentation assay and in vivo experiments to assess the DC-mediated antitumor response and cancer immunity.

EG7 lymphoma cells = assay: Mouse Syngeneic Tumor Model, treated with inhibitor-activated mature dendritic cells; assay type: in vivo; details: tumor volume in mice 28 days following a single treatment of mature dendritic cells activated by the compound; Example 5 vs Example 6
Description: A novel dual reporter (GFP & luciferase) MSCV based plasmid was creating by subcloning from two commercially available constructs (addgene 19360: pLenti pgk and addgene 18751: MSCV-IRES-GFP). This construct was used to generate retrovirus for infection of EG7 lymphoma cells (ATCC#CRL-2133). EG7-ova expressing cells are a commonly used model for T cell lymphoma engineered to express the ovalbumin antigen making them useful in immunological and drug discovery applications. These cells were then GFP sorted at the McGill University Life Sciences Complex flow cytometry core (BD FACscalibur) prior to subcutaneous implantation (5×10^5 cells) in syngeneic C57bl6 mice (Harlan). Tumors were allowed to establish in the mice and then were imaged ten days post implantation (Perkin Elmer IVIS100) and luminescence was quantified using IVIS software. Mice were then treated on day 10 post injection with 2×10^6 ex vivo-derived and inhibitor-treated mature dendritic cells (IP injection) (see ex vivo activation of monocyte derived DC with PTP inhibitor). Ovalbulim was added to DC cultures during maturation at a concentration of 2.5 mg/mL. Following maturation, DCs were harvested by gently resuspending with phosphate-buffered saline to dislodge any loosely attached cells. Cells were then spun down and washed twice with phosphate-buffered saline. […]

[1] = tested on: dendritic cells derived from monocytes taken from human pancreatic cancer patients; assay: Human Dendritic Cell Assay (IL-12 release); assay type: cell-based; details: DCs matured in the presence of the compound vs the same cells matured without it
Method: A sample of human blood was diluted with an equal volume of PBS plus 2% FBS. The diluted blood was layered on top of Lymphoprep (Stemcell technologies) being careful to minimize the mixing of the blood with Lymphoprep. The mixture was centrifuged at 800×g for 20 minutes at room temperature with brake off. If the blood had been stored for more than 2 hours, the centrifugation time was increased to 30 minutes. The upper plasma layer was then removed and discarded without disturbing the plasma-lymphoprep interface. The mononuclear cell layer (PMBC) at the plasma-lymphoprep interface was removed and retained without disturbing the erythrocyte/granulocyte pellet. The mononuclear cells were washed once with media and the CD14+ cells were isolated according to the instructions for the positive selection of CD14+ kit (Stemcell technologies). The resulting CD14+ cells were cultured in PromoCell monocyte attachment media (PromoCell). Cells were plated at 0.5×10^6 cells/cm^2 and incubated for 1 h at 5% CO2 and 37° C. in a humidified incubator. […]
as §1

TC-PTP, sequence (P17706 whole entry, species assumed): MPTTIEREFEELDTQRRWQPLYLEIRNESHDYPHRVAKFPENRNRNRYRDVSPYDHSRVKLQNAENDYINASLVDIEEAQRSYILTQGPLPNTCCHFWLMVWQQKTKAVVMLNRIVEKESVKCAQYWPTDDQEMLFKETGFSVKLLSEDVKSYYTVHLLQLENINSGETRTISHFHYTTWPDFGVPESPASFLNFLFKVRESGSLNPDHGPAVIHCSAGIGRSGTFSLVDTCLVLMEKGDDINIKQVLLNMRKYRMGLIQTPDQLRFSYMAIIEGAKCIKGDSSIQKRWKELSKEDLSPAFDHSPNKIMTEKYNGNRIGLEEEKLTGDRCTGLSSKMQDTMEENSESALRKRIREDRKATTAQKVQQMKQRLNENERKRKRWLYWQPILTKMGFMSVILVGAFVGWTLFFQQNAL

SMILES	IC50 (TC-PTP)	% increase in IL-12 production (monocyte-derived DCs)	potency in the IL-12 release assay (in words) (monocyte-derived DCs)	efficacy at reducing tumor volume (EG7 lymphoma cells)	release of IL-12 [1]
O=C(O)c1cc2cc(Br)c(C(F)(F)P(=O)(O)O)cc2s1 [Ex. 9, ((5-Bromo-2-(Carboxy)Benzo[b]Thiophen-6-yl)Difluoromethyl)Phosphonate]	170 nM	–	–	–	–
COC(=O)c1cc2cc(Br)c(C(F)(F)P(=O)(O)O)cc2s1 [Ex. 8, ((5-Bromo-2-(Methoxycarbonyl)Benzo[b]Thiophen-6-yl)Difluoromethyl)Phosphonate]	2900 nM	–	–	–	–
CCOC(=O)c1cc2cc(Br)c(C(F)(F)P(=O)(O)O)cc2s1 [Ex. 7, ((5-Bromo-2-(Ethoxycarbonyl)Benzo[b]Thiophen-6-yl)Difluoromethyl)Phosphonate]	740 nM	171%	–	–	greater release of IL-12
N#Cc1ccc2cc(Br)c(C(F)(F)P(=O)(O)O)cc2c1 [Ex. 10, [(3-Bromo-7-Cyano-2-Naphthyl)(Difluoro)Methyl]Phosphonate]	490 nM	42%	–	–	–
N#Cc1cc2cc(C(F)(F)P(=O)(O)O)c(Br)cc2s1 [Ex. 4, ((6-Bromo-2-Cyanobenzo[b]Thiophen-5-yl)Difluoromethyl)Phosphonate]	1200 nM	85%	–	–	–
CCOC(=O)c1cc2cc(C(F)(F)P(=O)(O)O)c(Br)cc2s1 [Ex. 1, ((6-Bromo-2-(Ethoxycarbonyl)Benzo[b]Thiophen-5-yl)Difluoromethyl)Phosphonate]	450 nM	161%	–	–	–

Now from value to molecule, other results behind:

IC50 (TC-PTP)	SMILES	% increase in IL-12 production (monocyte-derived DCs)	potency in the IL-12 release assay (in words) (monocyte-derived DCs)	efficacy at reducing tumor volume (EG7 lymphoma cells)	release of IL-12 [1]
1500 nM	O=P(O)(O)C(F)(F)c1cc2cc(CO)sc2cc1Br [Ex. 5, ((6-Bromo-2-(Hydroxymethyl)Benzo[b]Thiophen-5-yl)Difluoromethyl)Phosphonate]	144%	potent	greater efficacy at reducing tumor volume	–
260 nM	O=C(O)c1cc2cc(C(F)(F)P(=O)(O)O)c(Br)cc2s1 [Ex. 2, 6-Bromo-5-(Difluoro(Phosphonato)Methyl)Benzo[b]Thiophene-2-Carboxylate]	143%	–	–	–
280 nM	NC(=O)c1cc2cc(C(F)(F)P(=O)(O)O)c(Br)cc2s1 [Ex. 3, ((6-Bromo-2-Carbamoylbenzo[b]Thiophen-5-yl)Difluoromethyl)Phosphonate]	130%	–	–	–
370 nM	N#CCc1cc2cc(C(F)(F)P(=O)(O)O)c(Br)cc2s1 [Ex. 6, ((6-Bromo-2-(Cyanomethyl)Benzo[b]Thiophen-5-yl)Difluoromethyl)Phosphonate]	60%	less potent	–	–

From patent publication US10150787B2, “TC-PTP inhibitors as APC activators for immunotherapy” (THE ROYAL INSTITUTION FOR THE ADVANCEMENT OF LEARNING / …, priority 2014, dated 2018)
